Experimental data from patent US12421187B2, “Dihydrofolate synthase (DHFS) inhibiting agents and methods of making and using same” (Washington Univeristy, priority 2022, dated 2025).
Values after ≈ are worked out from the molar mass of the structure shown. “Also recorded” adds a separate entry of the source. Where two headings read alike, the source gives them in different places.

How the values were obtained:
[1] = target: T1, dihydropteroate synthase (DHPS) (Escherichia coli, UniProt P0AC13); assay: HPPK/DHPS/DHFR steady state kinetics with PABA or 3-HβL as DHPS substrate; format: biochemical, E. coli
T1 construct: made in house; host or cells: E. coli BL21 (given for HPPK; the other enzymes 'in the same manner')
T1 sequence (P0AC13 whole entry): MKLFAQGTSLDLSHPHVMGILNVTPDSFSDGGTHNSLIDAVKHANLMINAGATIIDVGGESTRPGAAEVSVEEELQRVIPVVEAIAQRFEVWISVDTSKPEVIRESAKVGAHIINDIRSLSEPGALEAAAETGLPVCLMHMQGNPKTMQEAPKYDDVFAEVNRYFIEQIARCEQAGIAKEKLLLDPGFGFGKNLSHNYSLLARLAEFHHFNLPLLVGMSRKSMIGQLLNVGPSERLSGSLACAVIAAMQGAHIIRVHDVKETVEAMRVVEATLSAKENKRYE
Experimental: (§1) DHFR would only reduce dihydropteroic acid, not 6-hydroxymethyl-7,8-dihydropterin, and as long as the DHFR rate was not slower than the DHPS rate, then the rate limiting step of DHPS is represented by the decrease in absorbance at 340 nm overtime.
(§2) HPPK, DHPS, DHFR and all their associated cosubstrates (ATP, PABA, NADPH) were combined in suitable buffer conditions (pH=7.5) and the optical absorbance at 340 nm was measured over time (see e.g., FIG. 21A).
HPPK/DHPS/DHFR Steady State Kinetics
Stock solutions of all reagents were made using 100 mM Tris buffer (pH=7.5) and stored in fractions in a −80° C. freezer until use (see e.g., TABLE 5).
An assay stock solution containing everything except the enzymes was made and 142.5 μL was distributed to each well (6 total) on a quartz 96-well plate that had been flushed with argon. To each of the first three wells was then added 7.5 μL of the enzyme solution containing HPPK/DHPS/DHFR, and to each of the last 3 wells was added 7.5 μL of 100 mM Tris-buffer. The 96-well plate was put into a UV/Vis plate reader and incubated at 37° C. while the optical absorbance at nm was read every 10 s for 1 h. The apparent reaction rate for absorbance decrease was measured from between 0-5 min. Each well was combined with their triplicate partners and the solutions were centrifuge filtered through a molecular weight cutoff (MWCO) to remove any enzymes. The solutions then run on an LCMS with single ion monitoring methods to detect the various oxidation states of products.
HPPK/DHPS/DHFR Steady State Kinetics with a 3-HG3L as a Substrate Stock solutions of all reagents were made using 100 mM Tris buffer (pH=7.5) and stored in fractions in a −80° C. freezer until use (see e.g., TABLE 7).
An assay stock solution containing everything except the enzymes was made and 142.5 μL was distributed to each well (6 total) on a quartz 96-well plate that had been flushed with argon. To each of the first three wells was then added 7.5 μL of the enzyme solution containing HPPK/DHPS/DHFR, and to each of the last 3 wells was added 7.5 μL of 100 mM Tris-buffer. The 96-well plate was put into a UV/Vis plate reader and incubated at 37° C. while the optical absorbance at nm was read every 10 s for 1 h. The apparent reaction rate for absorbance decrease was measured from between 0-5 min. Each well was combined with 1-0 their triplicate partners and the solutions were centrifuge filtered through a molecular weight cutoff (MWCO) to remove any enzymes. The solutions then run on an LCMS with single ion monitoring methods to detect the various oxidation states of products.

[2] = target: T1, dihydropteroate synthase (DHPS); assay: HPPK/DHPS/DHFR steady state kinetics inhibition assay (NADPH consumption, absorbance at 340 nm); format: biochemical, E. coli
Experimental: as §1, §2
HPPK/DHPS/DHFR Steady State Kinetics Inhibition
Stock solutions of all reagents were made using 100 mM Tris-buffer (pH=7.5) and stored in fractions in a −80° C. freezer until use (see e.g., TABLE 6).
An assay stock solution containing everything except the HPPK/DHPS/DHFR solution and the Tris buffer+Inhibitor was made and 88.5 μL was distributed to each well (in triplicate) of a quartz 96-well plate to be used. […] 7.5 μL of the enzyme solution containing HPPK/DHPS/DHFR was added to each well and the plate was put into a UV/Vis plate reader and incubated at 37° C. while the optical absorbance at 340 nm was read every 10 s for 1 h. The apparent reaction 1-9 rate for absorbance decrease was measured from between 0-5 min.

[3] = target: T2, dihydrofolate synthetase (DHFS) (Escherichia coli, UniProt P08192); assay: DHFS steady state kinetics inhibition assay (PK/LDH coupled, absorbance at 340 nm, LCMS of product); format: biochemical, E. coli; details: for DHFS product detected by LCMS of the reaction mixtures: higher inhibitor concentrations, FIG. 38A-38B
T2 construct: made in house; host or cells: E. coli BL21 (given for HPPK; the other enzymes 'in the same manner')
T2 sequence (P08192 whole entry): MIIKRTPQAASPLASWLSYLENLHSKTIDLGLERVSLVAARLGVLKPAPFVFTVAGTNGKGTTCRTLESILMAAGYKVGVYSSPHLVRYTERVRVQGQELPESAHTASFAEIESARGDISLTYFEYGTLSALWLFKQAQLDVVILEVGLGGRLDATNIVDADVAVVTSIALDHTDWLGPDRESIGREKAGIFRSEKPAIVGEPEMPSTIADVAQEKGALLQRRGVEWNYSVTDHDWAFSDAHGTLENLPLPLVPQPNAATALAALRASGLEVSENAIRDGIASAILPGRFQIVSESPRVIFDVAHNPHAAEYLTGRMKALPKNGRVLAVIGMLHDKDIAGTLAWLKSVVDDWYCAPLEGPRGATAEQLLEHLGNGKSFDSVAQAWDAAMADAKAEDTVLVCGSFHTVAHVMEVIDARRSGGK
Excerpt: With a suitable DHFS substrate in hand (THFA), conditions to measure the rate of DHFS action were investigated. […] Given none of the substrates or cofactors of DHFS (see e.g., FIG. 19) would be suitable for absorbance change detection, a coupled enzyme reaction with pyruvate kinase/lactate dehydrogenase (PK/LDH) was chosen. In the presence of ADP (in this case produced by DHFS), PK would convert phosphoenolpyruvate (PEP) to pyruvate, reforming ATP in the process (see e.g., FIG. 20A). The pyruvate would then be reduced by LDH in a NADH dependent manner (see e.g., FIG. 20B). The oxidation of NADH to NAD^+ would cause a decrease in absorbance at 340 nm, which can be measured as a rate of DHFS activity as long as the PK/LDH process was not the rate limiting step of the pathway from THFA to NAD^+.
THFA and its associated cofactors (L-Glu, ATP) were dissolved in degassed buffer solution (pH=7.5) to reconstitute DHFS activity with coupling to PK/LDH activity in the presence of excess cosubstrates (PEP, NADH) (see e.g., FIG. 24A). The optical absorbance at 340 nm was measured over time and a steady-state approximation of DHFS rate (7.18 E-5 abs/s) was determined (see e.g., FIG. 24B). Once the reaction had progressed for 20 minutes, 1 M HCl was added to quench the reaction and KCl+MeOH was added to agglutinate the protein and solubilize the pterin-containing metabolites. The vials were heated for 1 h at 70° C. and centrifuged to remove precipitated enzymes. The supernatant solution was spiked with a fixed concentration of Fmoc-alanine as an internal standard for LCMS analysis.
DHFS Steady State Kinetics Inhibition Assay
Stock solutions of all reagents were made using 100 mM Tris-buffer (pH=7.5) an stored in fractions in a −80° C. freezer until use. 1500 μL of a stock solution containing everything (in appropriate amounts to maintain the final concentration calculations for 150 total μL well volume) in the table above except the DHFS and the Tris Buffer+inhibitor was made. Solutions of the Tris Buffer+inhibitor were made so as to achieve final inhibitor concentrations as below. The final concentrations of inhibitor can be adjusted as necessary.
Each necessary well of a quartz 96-well plate was flushed with argon then filled (in triplicate) with 69.75 μL of stock solution and 75.75 μL of Tris Buffer+Inhibitor solution. The quartz plate was incubated at 37° C. for 10 minutes then 4.5 μL of DHFS stock solution was quickly added to each well except well 6, to which 4.5 μL of Tris-buffer was added. The quartz plate was put in a plate reader at 37° C. and the optical absorbance at 340 nm was read every 10 seconds for 20 min. The apparent reaction rate for absorbance decrease was measured from between 0-5 min. Each well was combined with their triplicate partners and the solutions were centrifuge filtered through a molecular weight cutoff (MWCO) to remove any enzymes. The solutions were spiked with enough Fmoc-ala to bring the final concentration to 50 μM (moc-ala then run on an LCMS with single ion monitoring methods to detect the various oxidation states of THEA and Glu-THFA.
An alternative method is as follows: After the 20-minute optical absorbance reading, the triplicate solutions were combined then diluted with 200 μL MeOH and an amount of KCl in H2O to bring the final concentration of KCl to 20 mM. The solutions were then incubated at 70° C. for 1 h. […]

E. coli ATC 25922 = assay: Agar diffusion antibacterial susceptibility assay; format: cell-based; details: for zone of inhibition at 3520 µg/mL / zone of inhibition at 15000 µg/mL: Escherichia coli; for zone of inhibition at 15000 µg/mL: 15 mg/mL in DMSO
Experimental: Inhibitor 4.10 was also used alongside sulfamethoxazole and trimethoprim and in combination with sulfamethoxazole and trimethoprim respectively, in an agar diffusion antibacterial susceptibility assay (see e.g., FIG. 41 and TABLE 11).
An overnight culture of E. coli ATC 25922 was grown in 5 mL of LB broth. 22 g of Mueller Hinton II broth powder and 15 g of agar were dissolved in 1 L of dd-H2O and autoclaved. The MH II agar broth was cooled to 47° C. and 35 mL of MH II agar broth was inoculated with 100 μL of OD600=0.1 E. coli from the overnight culture. The inoculated agar was plated and once cool enough, 10 wells were cut out using a vacuum. Each well was filled with 50 μL DMSO solutions as below and the plates were left in an incubator at 37° C. for 18 h. The zones of inhibition were measured for each well.

E. coli = assay: Whole cell antibacterial susceptibility test, bacterial growth curves in 96-well plate; format: cell-based
Experimental: Bacterial growth curves were determined for E. coli using two compounds—inhibitor 4.10 and trimethoprim (positive control). A 96-well plate format was used to achieve serial dilution of the test compounds and included a DMSO control to simulate the concentration of DMSO required to solubilize the test compounds in the growth medium (not shown).

DHFS = target: T3, DHFS (Escherichia coli, UniProt P08192); assay: Protein mass spectrometry of DHFS incubated with inhibitor (covalent adduct search); parameters: species or system E. coli; details: 0, 40, 400 μM inhibitor, 20 μM DHFS, 37° C., 1 hour
T3 construct: made in house; host or cells: E. coli BL21 (given for HPPK; the other enzymes 'in the same manner')
T3 sequence (P08192 whole entry): as above
Excerpt: If DHFS is indeed phosphorylating the 3-hydroxyl group of the 3-HβL warhead, then why was it not detected by LCMS analysis? The possibility was considered that the higher concentrations of compound 4.10 resulting in 100% DHFS inhibition might be consistent with covalent modification of the enzyme by the inhibitor. This could happen by a variety of different mechanisms including the canonical β-lactam suicide inhibition mechanism through acylation of nucleophilic amino acid side chains. However, there is a potentially novel mechanism at play when considering the reactivity of an activated benzylic position of para-aniline derivatives. The presence of a leaving group at the benzylic position of para-anilines results in the formation of reactive quinone-imine-methide species. If the 3-hydroxy group of inhibitor 4.10 is phosphorylated in the DHFS active site, it could serve as a leaving group leading to spontaneous formation of a quinone-imine-methide that might react with nearby amino acid side chains. This transformation could also take place within the mass spec, making detection of the phosphorylated inhibitor impossible (see e.g., FIG. 39). […] The LCMS samples were also analyzed for the presence of a reaction product between the 3-HβL and L-Glu, but no masses which could match this description were found. […]

[4] = ATC25922, 3.52 mg/mL in DMSO, 50 μL per well, 37° C., 18 h, read-out: Zone of Inhibition
[5] = ATC25922, 50 μL per well, 37° C., 18 h

Compound: Nc1ccc(C2(O)CNC2=O)cc1 (stereo not shown) [Compound 2.44, 3-(4-aminophenyl)-3-hydroxyazetidin-2-one]
- Substrate of DHPS, rate as substrate (in words) [1]: substrate of DHPS
- Substrate of DHPS, rate as substrate (in words) ([1]; listed as 3-(para-NH2-phenyl)-3-HβL): substrate
- Substrate of DHPS, rate as substrate (in words) ([1]; listed as BVD-3-7): slower
- Inhibition of DHPS (in words) [2]: not an inhibitor of DHPS

Compound: NCC(O)(C(=O)O)c1ccc(NCc2cnc3nc(N)nc(N)c3n2)cc1 (stereo not shown) [Compound 4.12, 3-amino-2-(4-(((2,4-diaminopteridin-6-yl)methyl)amino)phenyl)-2-hydroxypropanoic acid]
- DHFS product detected by LCMS of the reaction mixtures [3]: still showed some product

Compound: Nc1ncc(CNc2ccc(C3(O)CNC3=O)cc2)c(N)n1 (stereo not shown) [Compound 4.6, 3-(4-(((2,4-diaminopyrimidin-5-yl)methyl)amino)phenyl)-3-hydroxyazetidin-2-one]
- Dose-dependent inhibition of DHFS (in words) [3]: no apparent dose dependent inhibition of DHFS

Compound: Nc1ccc(C(=O)O)cc1 [PABA, p-amino-benzoic acid, reference compound]
- Substrate of DHPS, rate as substrate (in words) [1]: faster

Compound: Cc1cc(NS(=O)(=O)c2ccc(N)cc2)no1 [sulfamethoxazole]
- Bacterial growth inhibition in agar diffusion (in words) (E. coli ATC 25922; E. coli): clear zones of bacterial growth inhibition
- zone of inhibition at 3520 µg/mL (E. coli ATC 25922; [4]): 23.2 mm
- zone of inhibition at 15000 µg/mL (E. coli ATC 25922; [5]): 25.9 mm

Compound: Nc1nc(N)c2nc(CNc3ccc(C4(O)CNC4=O)cc3)cnc2n1 (stereo not shown) [Compound 4.10, 3-(4-(((2,4-diaminopteridin-6-yl)methyl)amino)phenyl)-3-hydroxyazetidin-2-one]
- Inhibition of bacterial growth (in words) (E. coli; serial dilution, compared with DMSO control): No significant inhibition of bacterial growth
- Bacterial growth inhibition in agar diffusion (in words) (E. coli ATC 25922; E. coli): no bacterial growth inhibition was observed; also recorded: no apparent effect on E. coli growth
- Synergistic effect in combination with sulfamethoxazole or trimethoprim (in words) (E. coli ATC 25922; E. coli): No apparent synergistic effect
- zone of inhibition at 3520 µg/mL (E. coli ATC 25922; ATC25922, 18 h): 0 mm
- Dose-dependent inhibition of DHFS (in words) [3]: dose-dependent inhibitory response
- DHFS rate inhibition ([3]; at higher (double digit micromolar) concentrations): ~100%
- DHFS product detected by LCMS of the reaction mixtures [3]: no product detected
- 3-HβL-DHFS covalent adducts by protein mass spectrometry (in words) (DHFS): no apparent peaks corresponding to DHFS+334 mass units; also recorded: no 3-HβL—DHFS adducts formed

Compound: COc1cc(Cc2cnc(N)nc2N)cc(OC)c1OC [trimethoprim]
- MIC (E. coli; Escherichia coli, read-out: MIC (minimum inhibitory concentration)): 2 µM (≈ 0.581 µg/mL)
- Bacterial growth inhibition in agar diffusion (in words) (E. coli ATC 25922; E. coli): clear zones of bacterial growth inhibition
- zone of inhibition at 3520 µg/mL (E. coli ATC 25922; [4]): 39.6 mm
- zone of inhibition at 15000 µg/mL (E. coli ATC 25922; [5]): 45.3 mm
